In general, remaining activity refers to the activity still measured, relative to the control. By IC50 is commonly meant the concentration needed to halve the response being measured. As usually defined, the melting point is the temperature, or range, at which the solid turns liquid.

Molecules are shown by their SMILES.

In one data set the target is T1, RalB (Homo sapiens, UniProt P11234).
T1 construct: expressed in transfected cells; host or cells: HepG2 (from b6; the methods paragraph names no cell line)
T1 sequence (P11234 1-203 limits assumed): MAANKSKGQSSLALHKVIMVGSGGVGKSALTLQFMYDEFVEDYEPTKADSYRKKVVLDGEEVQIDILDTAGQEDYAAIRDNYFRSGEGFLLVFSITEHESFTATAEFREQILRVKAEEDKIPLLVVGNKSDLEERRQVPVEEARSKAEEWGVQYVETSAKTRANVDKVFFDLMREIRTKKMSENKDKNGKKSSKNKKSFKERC
Description: ELISA-based RalB activity assay (RalBP1-coated plates, lysates of compound-treated cells). It counts as biochemical. Conditions: 1 μM compound; % control = active (RalBP1-bound) RalB remaining. The method, then: (§1) The in vitro RalA/B bioactivity assays were performed following methods outlined in previous reports. ([Yan et al., 2016]; [Zhang et al., 2018]; [Walsh et al., 2019]; [Bum-Erdene et al., 2020]). In brief, the lysates of the test compound or vehicle-treated cells were cleared using cold centrifugation, and supernatants were collected. An RalBP1 solution was added to 96-well plates and incubated for 1–2 h, and then the plates were washed thrice using ELISA buffer. Next, cellular lysates were added, and samples were incubated overnight at 4°C. Then, ice-cold mouse anti-FLAG antibody was added, and samples were incubated for one more hour. After subsequent washing with ELISA buffer thrice, the HRP-conjugated anti-mouse antibody was added, and samples were incubated for another hour. Then, the HRP substrate was added. Antigen–antibody reactions were quenched by the addition of sulfuric acid (2 mol/L). Remaining RalA/B was detected by the OD450 values which were collected by using a plate reader. Cell proliferation assays, colony formation assays, apoptosis assays, GST pulldown, and Western blotting were used following methods outlined in our previous reports. ([Zhou et al., 2015]; [Zhang et al., 2016]; [Yang et al., 2017]; [He et al., 2019]). Autophagy levels and protein immunoblotting were used following the methods mentioned in our previous reports ([Pan et al., 2018]; [Wang et al., 2018]; [Hao et al., 2019]; [Wang et al., 2019]; [Peng et al., 2020]). Detailed experimental procedures are described in supporting materials.
Background: ELISA stands for enzyme-linked immunosorbent assay.

In the next data set the target is T2, RalA (Homo sapiens, UniProt P11233).
T2 construct: expressed in transfected cells; host or cells: HepG2 (from b6; the methods paragraph names no cell line)
T2 sequence (P11233 1-203 limits assumed): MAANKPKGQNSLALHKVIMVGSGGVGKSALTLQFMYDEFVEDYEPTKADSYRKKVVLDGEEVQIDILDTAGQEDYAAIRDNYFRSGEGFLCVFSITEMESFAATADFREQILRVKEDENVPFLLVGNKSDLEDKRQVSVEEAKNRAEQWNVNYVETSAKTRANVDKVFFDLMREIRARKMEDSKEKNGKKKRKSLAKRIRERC
In words: ELISA-based RalA activity assay (RalBP1-coated plates, lysates of compound-treated cells). The class given is biochemical. Conditions: 1 μM compound; % control = activity remained. How it is done:
as §1

Another data set deals with HepG2 cells. Description: Cell proliferation assay (MTT), HepG2. It counts as cell-based. Conditions: Homo sapiens, HepG2, Table 1, cell proliferation inhibition; read-out: IC50 (μM) HepG2. How it is done: (§2) The antibodies recognizing LC3, p62/SQSTM1, RalA, RalB, and GAPDH were purchased from Proteintech (Wuhan, China). HCC cell lines, including HepG2, Hep3B, Huh-7, and SMMC-7721, were obtained from the Chinese Center for Type Culture Collection (Wuhan, China) and cultured in DMEM (Dulbecco’s modified Eagle’s medium) with 10% FBS (fetal bovine serum) and streptomycin. Cytotoxicity assays were performed by using the MTT method as previously described.
as §1

In another data set the test system is Huh-7 cells. In words: Cell proliferation assay (MTT), Huh-7. The class given is cell-based. Conditions: Homo sapiens, Table 1, cell proliferation inhibition, read-out: IC50 (μM) Huh7. How it is done:
as §2, §1

Regarding `COc1cccc(C2C(C#N)=C(NS(=O)(=O)c3ccc([N+](=O)[O-])cc3)Oc3c2c(C)nn3-c2ccccc2Cl)c1` (stereo not drawn) [4ab, N-(1-(2-chlorophenyl)-5-cyano-4-(3-methoxyphenyl)-3-methyl-1,4-dihydropyrano[2,3-c]-pyrazol-6-yl)-4-nitrobenzenesulfonamide], the remaining activity at 1 µM on RalB came to 65%; on RalA, 60%. Moreover, the concentration for half-maximal inhibition (IC50) in the data set on HepG2 cells and in the data set with Huh-7 cells was over 10 µM each time.
In the case of `Cc1ccc(S(=O)(=O)NC2=C(C#N)C(c3ccsc3)c3c(C)nn(-c4ccccc4Cl)c3O2)cc1` (stereo not drawn) [4v, N-(1-(2-chlorophenyl)-5-cyano-3-methyl-4-(thiophen-3-yl)-1,4-dihydropyrano[2,3-c]-pyrazol-6-yl)-4-methylbenzenesulfonamide], the melting point fell in the range of 67.4 to 68.8 °C. On RalB, this molecule came in with a remaining activity at 1 µM of 78%. On RalA, this molecule returned a remaining activity at 1 µM of 56%. In the data set with HepG2 cells, the IC50 was over 10 µM. In addition, in the data set with Huh-7 cells, the IC50 was over 10 µM.
Turning to `COc1cccc(C2C(C#N)=C(NS(=O)(=O)c3cccc([N+](=O)[O-])c3)Oc3c2c(C)nn3-c2ccccc2Cl)c1` (stereo not drawn) [4aa, N-(1-(2-chlorophenyl)-5-cyano-4-(3-methoxyphenyl)-3-methyl-1,4-dihydropyrano[2,3-c]-pyrazol-6-yl)-3-nitrobenzenesulfonamide], the figures for the remaining activity at 1 µM on RalB and on RalA were 73% and 72%, respectively. Moreover, the IC50 with HepG2 cells and in the data set with Huh-7 cells was over 10 µM each time.
The molecule `Cc1ccc(S(=O)(=O)NC2=C(C#N)C(c3ccc(Br)cc3)c3c(C)nn(-c4ccccc4)c3O2)cc1` (stereo not drawn) [4d, N-(4-(4-bromophenyl)-5-cyano-3-methyl-1-phenyl-1,4-dihydropyrano[2,3-c]-pyrazol-6-yl)-4-methylbenzenesulfonamide] displayed a melting point of 101.6 to 102.3 °C. The molecule further registered a remaining activity at 1 µM on RalB of 89%. Moreover, the remaining activity at 1 µM on RalA amounted to 77%. In addition, the IC50 in the data set on HepG2 cells was over 10 µM. Further, the IC50 with Huh-7 cells was over 10 µM.
Turning to `COc1ccc(S(=O)(=O)NC2=C(C#N)C(c3cccc(OC)c3)c3c(C)nn(-c4ccccc4Cl)c3O2)cc1` (stereo not drawn) [4y, N-(1-(2-chlorophenyl)-5-cyano-4-(3-methoxyphenyl)-3-methyl-1,4-dihydropyrano[2,3-c]-pyrazol-6-yl)-4-methoxybenzenesulfonamide], the remaining activity at 1 µM at RalB was determined as 73%; on RalA, 54%. Besides, the half-inhibitory concentration (IC50) with HepG2 cells and in the data set with Huh-7 cells was over 10 µM throughout.
In turn, `Cc1ccc(S(=O)(=O)NC2=C(C#N)C(c3ccccc3)c3c(C)nn(-c4ccccc4)c3O2)cc1` (stereo not drawn) [4a, N-(5-cyano-3-methyl-1,4-diphenyl-1,4-dihydropyrano[2,3-c]-pyrazole-6-yl)-4-methylbenzenesulfonamide] showed a melting point of 68.3 to 69.7 °C. The molecule also registered a remaining activity at 1 µM at RalB of 85%. At RalA, this molecule displayed a remaining activity at 1 µM of 74%. In addition, in the data set with HepG2 cells, the IC50 was over 10 µM. Also, in the data set with Huh-7 cells, the IC50 is over 10 µM.
In turn, `COc1ccc(C2C(C#N)=C(NS(=O)(=O)c3ccc(C)cc3)Oc3c2c(C)nn3-c2ccccc2)cc1` (stereo not drawn) [4i, N-(5-cyano-4-(4-methoxyphenyl)-3-methyl-1-phenyl-1,4-dihydropyrano[2,3-c]-pyrazol-6-yl)-4-methylbenzenesulfonamide] yielded a melting point of 145.2 to 146 °C. For the same molecule, the remaining activity at 1 µM on RalB came out at 60%. For the same molecule, the remaining activity at 1 µM on RalA was 69%. Further, in the data set on HepG2 cells, the IC50 was over 10 µM. Moreover, in the data set with Huh-7 cells, the half-maximal inhibitory concentration (IC50) is over 10 µM.
Turning to `Cc1ccc(S(=O)(=O)NC2=C(C#N)C(c3ccccc3)c3c(C)nn(-c4ccc(F)cc4)c3O2)cc1` (stereo not drawn) [4ag, N-(5-cyano-1-(4-fluorophenyl)-3-methyl-4-phenyl-1,4-dihydropyrano[2,3-c]-pyrazol-6-yl)-4-methylbenzenesulfonamide], the melting point was in the range of 138.6 to 139.3 °C. This molecule also showed a remaining activity at 1 µM on RalB of 75%. This molecule also came in with a remaining activity at 1 µM at RalA of 66%. In addition, the IC50 with HepG2 cells is over 10 µM. Further, the IC50 in the data set with Huh-7 cells was over 10 µM.
For the molecule `Cc1ccc(S(=O)(=O)NC2=C(C#N)C(c3cccc(Br)c3)c3c(C)nn(-c4ccccc4)c3O2)cc1` (stereo not drawn) [4f, N-(4-(3-bromophenyl)-5-cyano-3-methyl-1-phenyl-1,4-dihydropyrano[2,3-c]-pyrazol-6-yl)-4-methylbenzenesulfonamide], the melting point was 68.4 to 69.5 °C. On RalB, this molecule gave a remaining activity at 1 µM of 71%. Also, the remaining activity at 1 µM on RalA turned out to be 47%. Besides, the IC50 in the data set on HepG2 cells stood at 8.83 ± 0.75 µM. Also, the IC50 in the data set on Huh-7 cells was over 10 µM.
With `COc1cccc(C2C(C#N)=C(NS(=O)(=O)c3ccccc3[N+](=O)[O-])Oc3c2c(C)nn3-c2ccccc2Cl)c1` (stereo not drawn) [4z, N-(1-(2-chlorophenyl)-5-cyano-4-(3-methoxyphenyl)-3-methyl-1,4-dihydropyrano[2,3-c]-pyrazol-6-yl)-2-nitrobenzenesulfonamide], the remaining activity at 1 µM at RalB was 60%; at RalA, 53%. In addition, the concentration for half-maximal inhibition (IC50) in the data set with HepG2 cells and in the data set on Huh-7 cells was over 10 µM throughout.
`Cc1ccc(S(=O)(=O)NC2=C(C#N)C(c3cccc(Cl)c3)c3c(C)nn(-c4ccccc4)c3O2)cc1` (stereo not drawn) [4c, N-(4-(3-chlorophenyl)-5-cyano-3-methyl-1-phenyl-1,4-dihydropyrano[2,3-c]-pyrazol-6-yl)-4-methylbenzenesulfonamide]: the melting point was in the range of 68.4 to 69 °C. The remaining activity at 1 µM on RalB came out at 69%. On RalA, the remaining activity at 1 µM came to 40%. Besides, the IC50 in the data set on HepG2 cells came to 7.28 ± 0.64 µM. In the data set on Huh-7 cells, the IC50 is over 10 µM.
`Cc1ccc(S(=O)(=O)NC2=C(C#N)C(c3ccc(Cl)c(Cl)c3)c3c(C)nn(-c4ccccc4)c3O2)cc1` (stereo not drawn) [4g, N-(5-cyano-4-(3,4-dichlorophenyl)-3-methyl-1-phenyl-1,4-dihydropyrano[2,3-c]-pyrazol-6-yl)-4-methylbenzenesulfonamide]: the remaining activity at 1 µM was found to be 58% at RalB and 66% on RalA. In addition, the IC50 in the data set on HepG2 cells and with Huh-7 cells was over 10 µM throughout.
For `COc1cccc(C2C(C#N)=C(NS(=O)(=O)c3ccc(C)cc3)Oc3c2c(C)nn3-c2ccccc2Cl)c1` (stereo not drawn) [4w, N-(1-(2-chlorophenyl)-5-cyano-4-(3-methoxyphenyl)-3-methyl-1,4-dihydropyrano[2,3-c]-pyrazol-6-yl)-4-methylbenzenesulfonamide], the melting point fell in the range of 66.4 to 67.7 °C. Also, the remaining activity at 1 µM on RalB was 69%. The remaining activity at 1 µM at RalA worked out at 51%. Also, the IC50 in the data set on HepG2 cells amounted to 8.87 ± 0.95 µM. In addition, the IC50 with Huh-7 cells was over 10 µM.
For `Cc1ccc(S(=O)(=O)NC2=C(C#N)C(c3ccco3)c3c(C)nn(-c4ccccc4Cl)c3O2)cc1` (stereo not drawn) [4s, N-(1-(2-chlorophenyl)-5-cyano-4-(furan-2-yl)-3-methyl-1,4-dihydropyrano[2,3-c]-pyrazol-6-yl)-4-methylbenzenesulfonamide], in that order: 62.5 to 63.9 °C, 72%, 48%, 9.89 ± 0.81 µM and over 10 µM.
Consider `Cc1ccc(S(=O)(=O)NC2=C(C#N)C(c3cccnc3)c3c(C)nn(-c4ccccc4Cl)c3O2)cc1` (stereo not drawn) [4t, N-(1-(2-chlorophenyl)-5-cyano-3-methyl-4-(pyridin-3-yl)-1,4-dihydropyrano[2,3-c]-pyrazol-6-yl)-4-methylbenzenesulfonamide], for which the remaining activity at 1 µM worked out at 65% at RalB and 46% on RalA. Also, the values for the IC50 in the data set with HepG2 cells and in the data set with Huh-7 cells were 8.28 ± 0.89 µM and over 10 µM, respectively.

The values above are taken from article PMC8634879, “Design, Synthesis, and Biological Evaluation of Pyrano[2,3-c]-pyrazole–Based RalA Inhibitors Against Hepatocellular Carcinoma” (Frontiers in Chemistry, 2021).
